Source: BindingDB's records for PubMed 8996189 (Pfizer, 1997)

How the values were obtained:
Adenosine receptor A1 [1] = molecular target: T1, Adenosine receptor A1 (Oryctolagus cuniculus, UniProt P34970)
T1 sequence (P34970 whole entry): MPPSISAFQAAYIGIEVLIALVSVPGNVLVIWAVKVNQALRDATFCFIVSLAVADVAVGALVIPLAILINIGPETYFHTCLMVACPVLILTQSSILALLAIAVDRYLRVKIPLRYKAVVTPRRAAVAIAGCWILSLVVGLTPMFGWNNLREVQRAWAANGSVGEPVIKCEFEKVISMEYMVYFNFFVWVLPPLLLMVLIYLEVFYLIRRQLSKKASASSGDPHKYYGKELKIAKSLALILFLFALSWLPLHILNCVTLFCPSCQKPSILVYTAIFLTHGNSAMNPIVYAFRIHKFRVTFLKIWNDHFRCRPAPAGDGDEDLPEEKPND

Adenosine receptor A3 [2] = molecular target: T2, Adenosine receptor A3 (Oryctolagus cuniculus, UniProt O02667)
T2 sequence (O02667 whole entry): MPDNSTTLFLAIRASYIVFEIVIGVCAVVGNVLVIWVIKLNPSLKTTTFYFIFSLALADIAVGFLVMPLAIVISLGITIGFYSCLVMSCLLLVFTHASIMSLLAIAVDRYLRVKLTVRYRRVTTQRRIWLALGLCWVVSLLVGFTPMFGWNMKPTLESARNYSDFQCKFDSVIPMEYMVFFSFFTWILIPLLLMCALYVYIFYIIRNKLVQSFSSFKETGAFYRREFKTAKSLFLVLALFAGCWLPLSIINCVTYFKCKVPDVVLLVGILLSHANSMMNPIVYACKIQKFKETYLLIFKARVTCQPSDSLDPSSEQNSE

Adenosine receptor A3 [3] = molecular target: T3, Adenosine receptor A3 (Ovis aries, UniProt P35342)
T3 sequence (P35342 whole entry): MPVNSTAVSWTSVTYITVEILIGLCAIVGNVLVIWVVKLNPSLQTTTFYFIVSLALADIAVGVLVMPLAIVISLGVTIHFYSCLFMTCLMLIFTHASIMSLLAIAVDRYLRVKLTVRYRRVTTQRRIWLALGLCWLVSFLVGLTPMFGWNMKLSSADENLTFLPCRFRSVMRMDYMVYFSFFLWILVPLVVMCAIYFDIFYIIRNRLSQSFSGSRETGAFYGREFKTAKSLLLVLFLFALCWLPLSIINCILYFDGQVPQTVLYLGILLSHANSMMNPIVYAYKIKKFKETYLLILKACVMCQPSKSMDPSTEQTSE

Adenosine receptor A3 [4] = molecular target: T4, Adenosine receptor A3 (Homo sapiens, UniProt P0DMS8)
T4 sequence (P0DMS8 whole entry): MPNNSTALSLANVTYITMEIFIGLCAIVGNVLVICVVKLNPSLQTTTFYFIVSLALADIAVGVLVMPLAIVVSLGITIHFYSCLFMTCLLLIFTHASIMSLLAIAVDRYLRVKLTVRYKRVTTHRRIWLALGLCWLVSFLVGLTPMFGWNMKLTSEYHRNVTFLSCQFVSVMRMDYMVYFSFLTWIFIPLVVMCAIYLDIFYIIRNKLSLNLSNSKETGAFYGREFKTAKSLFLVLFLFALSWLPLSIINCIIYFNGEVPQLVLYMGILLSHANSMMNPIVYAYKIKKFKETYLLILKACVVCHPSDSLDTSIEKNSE

Adenosine receptor A1 [5] = molecular target: T5, Adenosine receptor A1 (Homo sapiens, UniProt P30542)
T5 sequence (P30542 whole entry): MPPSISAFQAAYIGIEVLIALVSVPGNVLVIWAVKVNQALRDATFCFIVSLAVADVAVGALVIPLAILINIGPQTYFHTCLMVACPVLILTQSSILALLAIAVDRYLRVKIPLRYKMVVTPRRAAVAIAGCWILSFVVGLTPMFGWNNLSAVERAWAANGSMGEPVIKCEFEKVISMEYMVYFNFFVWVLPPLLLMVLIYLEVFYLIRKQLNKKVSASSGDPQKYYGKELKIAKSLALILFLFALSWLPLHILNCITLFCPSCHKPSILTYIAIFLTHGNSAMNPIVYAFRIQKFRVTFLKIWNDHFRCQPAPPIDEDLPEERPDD

Structure (SMILES) | Ki (Adenosine receptor A1 [1]) [nM] | Ki (Adenosine receptor A3 [2]) [nM] | Ki (Adenosine receptor A3 [3]) [nM] | Ki (Adenosine receptor A3 [4]) [nM] | Ki (Adenosine receptor A1 [5]) [nM]
CNC(=O)C1OC(n2cnc3c(NCc4cccc(I)c4)ncnc32)C(O)C1O (stereo not drawn) [3,4-dihydroxy-5-(6-{[(3-iodophenyl)methyl]amino}-9H-purin-9-yl)-N-methyloxolane-2-carboxamide] | 30 |  |  |  | 
Nc1ccc(CNc2ncnc3c2ncn3[C@@H]2O[C@H](CO)[C@@H](O)[C@H]2O)cc1I [IABA] | 4 | 5 |  |  | 
CC(Cc1ccccc1)Nc1ncnc2c1ncn2C1OC(CO)C(O)C1O (stereo not drawn) [R-N6-(2-phenylisopropyl) adenosine] |  | 49 |  |  | 
CCNC(=O)[C@H]1O[C@@H](n2cnc3c(N)ncnc32)[C@H](O)[C@@H]1O | 2 | 27 |  |  | 
OC[C@H]1O[C@@H](n2cnc3c(NC4CCCC4)ncnc32)[C@H](O)[C@@H]1O |  | 49 |  |  | 

Now from value to molecule:

Ki (Adenosine receptor A1 [1]) [nM] | Ki (Adenosine receptor A3 [2]) [nM] | Ki (Adenosine receptor A3 [3]) [nM] | Ki (Adenosine receptor A3 [4]) [nM] | Ki (Adenosine receptor A1 [5]) [nM] | Structure (SMILES)
 | > 10000 |  |  |  | Cn1c(=O)c2[nH]c(-c3ccc(S(=O)(=O)O)cc3)nc2n(C)c1=O [4-(1,3-Dimethyl-2,6-dioxo-2,3,6,7-tetrahydro-1H-purin-8-yl)-benzenesulfonic acid]
 | 1120 |  |  |  | CCCn1c(=O)c2[nH]c(C3CCCC3)nc2n(CCC)c1=O [DPCPX]
5 | 329 |  |  |  | CCCn1c(=O)c2[nH]c(-c3ccc(OCC(=O)NCCN)cc3)nc2n(CCC)c1=O [N-(2-Amino-ethyl)-2-[4-(2,6-dioxo-1,3-dipropyl-2,3,6,9-tetrahydro-1H-purin-8-yl)-phenoxy]-acetamide]
3 | 746 | 21 | 40 | 120 | CCCn1c(=O)c2[nH]c(-c3ccc(C=CC(=O)O)cc3)nc2n(CCC)c1=O [NSC_129447]
6 | 47 |  |  |  | Nc1ccc(CCNc2ncnc3c2ncn3C2OC(CO)C(O)C2O)cc1 (stereo not drawn) [ChEMBL_198532]
